In assay [1] the target is IKZF1 adjoined to nanoluciferase (Nluc) (Homo sapiens (Human), UniProt Q13422). Briefly: IKZF1 Dual Luciferase Assay. The assay is classed as cell-based. The conditions noted are these: 4 hours; read-out: Nluc/Fluc IKZF1 IC50.
Protocol: Transduced cells were selected with puromycin at 2 μg/mL and expanded. […] Cells were incubated with compound for 4 hours at 37° C., 5% CO2 and then allowed to cool to room temperature. To each plate was added 25 μL of Fluc buffer (200 mM Tris, 15 mM MgSO4, 100 uM EDTA, 1 mM DTT, 1 mM ATP, 200 uM Coenzyme A, 400 uM D-Luciferin, 0.1% Trition X-100).
The target in another assay is CRBN-DDB1/BRD4 (Homo sapiens (Human), UniProt O60885+Q96SW2). Briefly: CRBN-DDB1/BRD4 Dimerization Assay.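 For all read-outs here: AlphaScreen proximity signal between GST-tagged BRD4 and CRBN-DDB1 with glutathione donor and nickel chelate acceptor beads, read after 1 hr compound incubation at room temperature, values from Gaussian curve fit.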 The conditions noted are these: for Dimer Amplitude / Dimer Mean: Gaussian fit of dimerization signal; for Dimer SD: Gaussian fit parameter of dimerization signal. Format: binding.
Assay [2] concerns the target fusion of mutant FKBP12 to nanoluciferase (Homo sapiens (Human), UniProt P62942+Q96SW2, F36V). Briefly: FKBP Dual Luciferase Assay (mutant FKBP12, 36V).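 For all read-outs here: cells exposed to rising degrader concentrations, FKBP12 fusion level read as NLuc/FLuc signal ratio, lower ratio means more degradation.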 Format: cell-based. Conditions: for Dmax: read-out: Max Degradation (dual luciferase, %) FKBP 36V.
Protocol: The cells were treated with increasing concentrations of various dFKBPs for 4 hours. The amount of NLuc and FLuc was measured, and the abundance of the FKBP12-HA-NLuc was quantified by calculating the signal ratio of NLuc/FLuc.
The target in assay [3] is BRD4 adjoined to nanoluciferase (Nluc) (Homo sapiens (Human), UniProt O60885+Q96SW2). Briefly: BRD4 Dual Luciferase Assay. The assay is classed as cell-based. The conditions noted are these: for Conc@Emax: concentration at Emax.
Protocol: Transduced cells were selected with puromycin and expanded. […] Cells were incubated with compound for 4 hours at 37° C., 5% CO2 and then allowed to cool to room temperature. To each plate was added 25 μL of Fluc buffer (200 mM Tris, 15 mM MgSO4, 100 uM EDTA, 1 mM DTT, 1 mM ATP, 200 uM Coenzyme A, 400 uM D-Luciferin, 0.1% Trition X-100).
[4] abbreviates: FKBP 36V, 4 hours, read-out: DC50 (nM) FKBP 36V.

Like-named read-outs stand apart in the source and are kept apart here.

Consider `CC(=O)Nc1ccc2c(c1)C(=O)N(C1CCC(=O)NC1=O)C2=O` [Compound D-5, N-(2-(2,6-dioxopiperidin-3-yl)-1,3-dioxoisoindolin-5-yl)acetamide], for which the DC50 in assay [1] was over 50 µM.

For the compound `CC[C@@H]1C(=O)N(C)c2cnc(Nc3ccc(C(=O)NCCCCNC(=O)COc4cccc5c4C(=O)N(C4CCC(=O)NC4=O)C5=O)cc3OC)nc2N1C1CCCC1` (stereo partly shown) [dBET2], on CRBN-DDB1/BRD4, the “Dimer Amplitude” value stood at 20549, the “Dimer Mean” value is reported as −7.428 and the “Dimer SD” value is 0.7005.

For `O=C1CCC(N2C(=O)c3ccc(NCc4ccccc4)cc3C2=O)C(=O)N1` [Compound D-25, 5-(benzylamino)-2-(2,6-dioxopiperidin-3-yl)isoindoline-1,3-dione], the DC50 in assay [1] is over 50 µM.

For the compound `Cc1sc2c(c1C)C(c1ccc(Cl)cc1)=N[C@@H](CC(=O)NCCCCCCCCOc1cccc3c1C(=O)N(C1CCC(=O)NC1=O)C3=O)c1nnc(C)n1-2` (stereo partly shown) [dBET21], at CRBN-DDB1/BRD4, the “Dimer Amplitude” value was 758.9, the “Dimer Mean” value is −6.306 and the “Dimer SD” value came out at 1.327.

With `O=C1CCC(N2C(=O)c3cccc(NCc4ccccc4)c3C2=O)C(=O)N1` [Compound D-16, 4-(benzylamino)-2-(2,6-dioxopiperidin-3-yl)isoindoline-1,3-dione], the DC50 in assay [1] was found to be 0.0239 µM.

`CCN(CC)c1cccc2c1C(=O)N(C1CCC(=O)NC1=O)C2=O` [Compound D-21, 4-(diethylamino)-2-(2,6-dioxopiperidin-3-yl)isoindoline-1,3-dione]: the DC50 in assay [1] is 0.14 µM.

Consider `CCN(CC)c1ccc2c(c1)C(=O)N(C1CCC(=O)NC1=O)C2=O` [Compound D-27, 5-(diethylamino)-2-(2,6-dioxopiperidin-3-yl)isoindoline-1,3-dione], for which the DC50 in assay [1] was over 50 µM.

Regarding `CC[C@H](C(=O)N1CCCC[C@H]1C(=O)OC(CCc1ccc(OC)c(OC)c1)c1cccc(OCC(=O)NCCCCCCOc2cccc3c2C(=O)N(C2CCC(=O)NC2=O)C3=O)c1)c1cc(OC)c(OC)c(OC)c1` (stereo partly shown) [dFKBP*-13], in assay [2] (setting [4]), the DC50 is 1.2 nM. Also, in assay [2] (FKBP 36V, 4 hours), the Dmax is 83%.

Take `CC[C@H](C(=O)N1CCCC[C@H]1C(=O)OC(CCc1ccc(OC)c(OC)c1)c1cccc(OCC(=O)NCc2ccc(CNC(=O)COc3cccc4c3C(=O)N(C3CCC(=O)NC3=O)C4=O)cc2)c1)c1cc(OC)c(OC)c(OC)c1` (stereo partly shown) [dFKBP*-21]: the DC50 in assay [2] (setting [4]) came out at 15 nM. Besides, the Dmax in assay [2] (FKBP 36V, 4 hours) amounted to 91%.

Take `Cc1c(CC#N)sc2c1C(c1ccc(Cl)cc1)=N[C@@H](CC(=O)NCCCCNC(=O)COc1cccc3c1C(=O)N(C1CCC(=O)NC1=O)C3=O)c1nnc(C)n1-2` (stereo partly shown) [dBET19]: at CRBN-DDB1/BRD4, the “Dimer Amplitude” value is 1722, the “Dimer Mean” value is reported as −7.069 and the “Dimer SD” value was found to be 1.225. The “Conc@Emax” value in assay [3] was 15.81 µM.

Regarding `O=C1CCC(N2C(=O)c3ccc(C(=O)O)cc3C2=O)C(=O)N1` [Compound D-13, 2-(2,6-dioxopiperidin-3-yl)-1,3-dioxoisoindoline-5-carboxylic acid], the DC50 in assay [1] was over 50 µM.

With `Cc1sc2c(c1C)C(c1ccc(Cl)cc1)=N[C@@H](CC(=O)NCCCCCCOc1cccc3c1C(=O)N(C1CCC(=O)NC1=O)C3=O)c1nnc(C)n1-2` (stereo partly shown) [dBET29], at CRBN-DDB1/BRD4, the “Dimer Amplitude” value amounted to 1454, the “Dimer Mean” value is recorded as −7.756 and the “Dimer SD” value stood at 0.7393. For the same compound, the “Conc@Emax” value in assay [3] is 0.05 µM.

As to `Cc1c(C(=O)NCCCCNC(=O)COc2cccc3c2C(=O)N(C2CCC(=O)NC2=O)C3=O)sc2c1C(c1ccc(Cl)cc1)=N[C@@H](CC(=O)NCCCN1CCN(C)CC1)c1nnc(C)n1-2` (stereo partly shown) [dBET30], on CRBN-DDB1/BRD4, the “Dimer Amplitude” value is reported as 30326, the “Dimer Mean” value was −7.422 and the “Dimer SD” value came to 0.8533. Moreover, the DC50 in assay [3] (Dual Luciferase, 4 hours) came out at 2100 nM. Moreover, the “Conc@Emax” value in assay [3] was determined as 50 µM. For the same compound, the “pDC50 (dual luc)” value in assay [3] (dual luc, 4 hours) turned out to be 5.679.

On to `CC[C@H](C(=O)N1CCCC[C@H]1C(=O)OC(CCc1ccc(OC)c(OC)c1)c1cccc(OCC(=O)NCCCCOc2cccc3c2C(=O)N(C2CCC(=O)NC2=O)C3=O)c1)c1cc(OC)c(OC)c(OC)c1` (stereo partly shown) [dFKBP*-18], for which the DC50 in assay [2] (setting [4]) was determined as 6.4 nM. Moreover, in assay [2] (FKBP 36V, 4 hours), the Dmax was determined as 80%.

With `O=C1CCC(N2C(=O)c3cccc([N+](=O)[O-])c3C2=O)C(=O)N1` [Compound D-10, 2-(2,6-dioxopiperidin-3-yl)-4-nitroisoindoline-1,3-dione], the DC50 in assay [1] is over 50 µM.

Regarding `O=C1CCC(N2C(=O)c3ccc(F)cc3C2=O)C(=O)N1` [Compound D-24, 2-(2,6-dioxopiperidin-3-yl)-5-fluoroisoindoline-1,3-dione], the DC50 in assay [1] was over 50 µM.

Take `Cc1nc2ccccc2c(=O)n1C1CC(=O)NC1=O` [Compound D-11, 3-(2-methyl-4-oxoquinazolin-3(4H)-yl)pyrrolidine-2,5-dione]: the DC50 in assay [1] was over 50 µM.

Turning to `CC(=O)NCc1cccc2c1C(=O)N(C1CCC(=O)NC1=O)C2=O` [Compound D-23, N-((2-(2,6-dioxopiperidin-3-yl)-1,3-dioxoisoindolin-4-yl)methyl)acetamide], the DC50 in assay [1] was found to be 1.02 µM.

Turning to `O=C1CCC(N2C(=O)c3cccc(CNC(=O)C4CC4)c3C2=O)C(=O)N1` [Compound D-22, N-((2-(2,6-dioxopiperidin-3-yl)-1,3-dioxoisoindolin-4-yl)methyl)cyclopropanecarboxamide], in assay [1], the DC50 stood at 0.534 µM.

For `O=C1CCC(N2C(=O)c3cccc(O)c3C2=O)C(=O)N1` [Compound D-1, 2-(2,6-dioxopiperidin-3-yl)-4-hydroxyisoindoline-1,3-dione], in assay [1], the DC50 was over 50 µM.

For `CC[C@H](C(=O)N1CCCC[C@H]1C(=O)O[C@H](CCc1ccc(OC)c(OC)c1)c1cccc(OCC(=O)NCCOCCOc2cccc3c2C(=O)N(C2CCC(=O)NC2=O)C3=O)c1)c1cc(OC)c(OC)c(OC)c1` (stereo partly shown) [dFKBP*-19], the DC50 in assay [2] (setting [4]) stood at 1.7 nM. In addition, the Dmax in assay [2] (FKBP 36V, 4 hours) worked out at 94%.

`O=C1CCC(N2C(=O)c3cccc(F)c3C2=O)C(=O)N1` [Compound D-14, 2-(2,6-dioxopiperidin-3-yl)-4-fluoroisoindoline-1,3-dione]: the DC50 in assay [1] is over 50 µM.

Take `CC[C@H](C(=O)N1CCCC[C@H]1C(=O)OC(CCc1ccc(OC)c(OC)c1)c1cccc(OCC(=O)NCCCOCCCNC(=O)COc2cccc3c2C(=O)N(C2CCC(=O)NC2=O)C3=O)c1)c1cc(OC)c(OC)c(OC)c1` (stereo partly shown) [dFKBP*-17]: the DC50 in assay [2] (setting [4]) was 69 nM. Moreover, in assay [2] (FKBP 36V, 4 hours), the Dmax came out at 64%.

As for `O=C1CCC(N2C(=O)c3ccc(C(=O)NCc4ccccc4)cc3C2=O)C(=O)N1` [Compound D-15, N-benzyl-2-(2,6-dioxopiperidin-3-yl)-1,3-dioxoisoindoline-5-carboxamide], in assay [1], the DC50 was over 50 µM.

`O=C1CCC(N2C(=O)c3ccc([N+](=O)[O-])cc3C2=O)C(=O)N1` [Compound D-2, 2-(2,6-dioxopiperidin-3-yl)-5-nitroisoindoline-1,3-dione]: the DC50 in assay [1] is over 50 µM.

With `CC[C@H](C(=O)N1CCCC[C@H]1C(=O)OC(CCc1ccc(OC)c(OC)c1)c1cccc(OCC(=O)NCCCCC(=O)Nc2cccc3c2C(=O)N(C2CCC(=O)NC2=O)C3=O)c1)c1cc(OC)c(OC)c(OC)c1` (stereo partly shown) [dFKBP*-16], the DC50 in assay [2] (setting [4]) came out at 99 nM. Further, the Dmax in assay [2] (FKBP 36V, 4 hours) is 38%.

With `Cc1nc2ccccc2c(=O)n1C1CCC(=O)NC1=O` [Compound D-9, 3-(2-methyl-4-oxoquinazolin-3(4H)-yl)piperidine-2,6-dione], the DC50 in assay [1] amounted to 7.61 µM.

Regarding `CC[C@H](C(=O)N1CCCC[C@H]1C(=O)OC(CCc1ccc(OC)c(OC)c1)c1cccc(OCC(=O)NCCCCCCCC(=O)Nc2cccc3c2C(=O)N(C2CCC(=O)NC2=O)C3=O)c1)c1cc(OC)c(OC)c(OC)c1` (stereo partly shown) [dFKBP*-20], the DC50 in assay [2] (setting [4]) stood at 17 nM. Moreover, in assay [2] (FKBP 36V, 4 hours), the Dmax worked out at 75.7%.

Regarding `CC[C@H](C(=O)N1CCCC[C@H]1C(=O)OC(CCc1ccc(OC)c(OC)c1)c1cccc(OCC(=O)NCCCCCCCCCCOc2cccc3c2C(=O)N(C2CCC(=O)NC2=O)C3=O)c1)c1cc(OC)c(OC)c(OC)c1` (stereo partly shown) [dFKBP*-14], the DC50 in assay [2] (setting [4]) is 57 nM. Further, in assay [2] (FKBP 36V, 4 hours), the Dmax worked out at 85%.

Take `CC[C@H](C(=O)N1CCCC[C@H]1C(=O)O[C@H](CCc1ccc(OC)c(OC)c1)c1cccc(OCC(=O)NCCOCCOCCOc2cccc3c2C(=O)N(C2CCC(=O)NC2=O)C3=O)c1)c1cc(OC)c(OC)c(OC)c1` (stereo partly shown) [dFKBP*-15]: the DC50 in assay [2] (setting [4]) was determined as 28 nM. For the same compound, in assay [2] (FKBP 36V, 4 hours), the Dmax was determined as 66%.

In the case of `CC(=O)Nc1cccc2c1C(=O)N(C1CCC(=O)NC1=O)C2=O` [Compound D-3, N-(2-(2,6-dioxopiperidin-3-yl)-1,3-dioxoisoindolin-4-yl)acetamide], the DC50 in assay [1] was 0.444 µM.

Consider `CC(C)Nc1ccc2c(c1)C(=O)N(C1CCC(=O)NC1=O)C2=O` [Compound D-26, 2-(2,6-dioxopiperidin-3-yl)-5-(isopropylamino)isoindoline-1,3-dione], for which, in assay [1], the DC50 was over 50 µM.

On to `CC[C@H](C(=O)N1CCCC[C@H]1C(=O)O[C@H](CCc1ccc(OC)c(OC)c1)c1cccc(OCC(=O)NCCCCCCCCNC(=O)COc2cccc3c2C(=O)N(C2CCC(=O)NC2=O)C3=O)c1)c1cc(OC)c(OC)c(OC)c1` (stereo partly shown) [c1FKBP*-9], for which the DC50 in assay [2] (read-out: DC50 (nM) FKBP 36V, 4 hours) worked out at 3.9 nM.

With `Cc1sc2c(c1C)C(c1ccc(Cl)cc1)=N[C@@H](CC(=O)NCCCOCCOCCOCCCNC(=O)COc1cccc3c1C(=O)N(C1CCC(=O)NC1=O)C3=O)c1nnc(C)n1-2` (stereo partly shown) [dBET9], at CRBN-DDB1/BRD4, the “Dimer Amplitude” value is 16889, the “Dimer Mean” value is listed as −7.496 and the “Dimer SD” value amounted to 0.5198.

As to `Cc1cccc2c1C(=O)N(C1CCC(=O)NC1=O)C2=O` [Compound D-19, 2-(2,6-dioxopiperidin-3-yl)-4-methylisoindoline-1,3-dione], the DC50 in assay [1] came out at 0.111 µM.

These data come from patent publication US11059801B2, “Methods to induce targeted protein degradation through bifunctional molecules” (Dana-Farber Cancer Institute, Inc., priority 2014, dated 2021).
